Results published in patent US20070275953A1 (priority 2003, published 2007).
pEC50: −log10 of the molar value. Where two headings read alike, the source gives them in different places.

Tests used:
[1] = molecular target: T1, HIV-1 reverse transcriptase (Human immunodeficiency virus type 1 group M subtype B, UniProt P04585); test: HIV-1 in vitro reverse transcriptase activity (fixed-time RNA dependent DNA polymerase assay); assay type: biochemical; details: residual RT activity, compound at 10 μM; RT activity without compound set at 100%
T1 construct: fixed-time assay for HIV-1 reverse transcriptase RNA dependent DNA polymerase activity; RT was purchased from Calbiochem; purchased Calbiochem CAL382129-500
Method: For the in vitro inhibition studies of the HIV-1 reverse transcriptase activity, stock solutions of the compounds of the present invention were prepared in dimethyl sulfoxide at a final concentration of 10 mM and kept at room temperature. Nevirapine was purchased from Boehringer Ingelheim. Efavirenz was received from the NIH AIDS Research and Reference Reagent Program.
In vitro inhibition studies used a fixed-time assay for HIV-1 reverse transcriptase RNA dependent DNA polymerase activity. RT was purchased from Calbiochem (ref CAL382129-500). One unit of RT corresponds to the amount of enzyme which incorporates one nanomole of [^3H]TTP in 10 minutes at 37° C.
Assays were performed in a final volume of 50 μl. […] Reaction mixtures were incubated at 37° C. for 10 min. The incorporation rate was determined by a standard trichloroacetic acid precipitation procedure (adapted from Current protocols in molecular biology. Eds Wiley, MGH Harvard medical school) and liquid scintillation counting using a Wallac scintillation counter.
The in vitro activity of the compounds, at a final concentration of 10 μM, on the reverse transcriptase (RT) activity of HIV-1 is derivable from the relative (%) reduction in RT activity. Hereby, the RT activity in the absence of any of the compounds is set at 100%.

[2] = test system: HIV-1 with WT (wild type) RT in P4 cells; test: Anti-HIV assay on P4 cell line, WT RT; assay type: cell-based
Method: (§1) For the antiviral and the cytotoxicity assays, the drugs were diluted in complete DMEM medium. In these experiments, drugs were diluted in triplicate wells in a 96-well plate in six, 5 fold serial dilutions.
(§2) Two days later, co-cultivation with SupT1 cells (a human T-cell lymphoma cell line) was initiated to facilitate rapid production of progeny virions. Production of virus was measured by using the Innotest HIV Antigen mAb p24 kit (Innogenetics). At the peak of production cultures were harvested and filtered. The virus stocks were stored at −80° C. until used.
Anti-HIV activity and cytotoxicity of the compounds were tested on a P4 cell line. […] The P4 cells were cultured in complete DMEM medium supplemented with 10% fetal bovine serum (FBS), 0.5% of Penicillin/Streptomycin and G418 at 0.5 mg/ml. Exponentially growing cells were trypsinized, centrifuged and split twice weekly at 5.10^4 cells/ml.
The P4 cells are HIV-infectible Hela-CD4 cells that carry the bacterial lacZ gene under the control of the HIV-1 long terminal repeat (LTR). In this cell line, transcription of the LacZ gene is driven by the HIV-1 LTR. […] In other words, in this system, the expression level of the β-galactosidase gene is proportional to the viral replication.
(§3) Briefly, in the anti-HIV assay 100 Ål of P4 cells were plated in 96-well plate at a concentration of 0.4 10^5 cells/ml and incubated at 37° C., 5% CO2. After 48 h, the medium was removed and 100 Ål of the different drugs dilutions were added to the cells. Four hours after the addition of the drugs all cells were infected with equal amount of cell-free virus, corresponding to 100 ng of HIV p24 antigen. After 48 h of incubation at 37° C., 5% CO2, β-galactosidase activity was measured using chlorophenol red-β-D-galactopyranoside assays.
Each assay was performed a minimum of three times. The 50% effective concentration (Ec50) was calculated from each dose response curve using the CurveExpert 1.3 software.

P4 cells = test: Cytotoxicity (CC50), MTT assay on P4 cells; assay type: cell-based; details: 3 days
Method: as §1
(§4) The 50% cytotoxic concentration (CCso) was determined using a protocol adapted from Pauwels et al. (1988. J. Virol. Methods 20(4):309-21). Briefly, flat bottom 96-well plates were filled with 50 μl of complete medium containing 5.10^3 P4 cells. 2 hours later 50 μl of drug solution were added to the cells. Drugs (dissolved in DMEM, see above) were diluted in six, 5-fold serial dilutions from stock solutions in triplicate wells of a 96-well plate. Cells and compounds were incubated at 37° C. in growth medium for 3 days. Cell viability was determined by MTT assays using the Roche Cell Proliferation KIT. The absorbance (λ=570 nm) was measured on a Benchmark™ Microplate Reader (Biorad) and compared with 12 cell control replicates (no drug added). Each assay was performed at least three times for a total of at least nine replicate wells. This method detects both cytostatic and cytolytic effects of drugs.

[3] = Cytotoxicity (CC50), MTT assay on P4 cells; assay type: cell-based; details: human
Method: as §1, §4

[4] = test system: HIV-1 mutant Cys188RT in P4 cells; test: Anti-HIV assay on P4 cells, Cys188RT mutant; assay type: cell-based
Description: (§5) In order to introduce mutation(s) at the level of the pol gene coding for the RT in the pNL4-3 plasmid containing the complete viral genome (Adachi et al., 1986. J. Virol., Vol. 59 p 284-291) we used the “Quick change mutagenesis kit” (Stratagene). The following mutations were separately introduced in pNL4-3: L100I, K103N, V108I, Y181C, Y188C, and the double mutations K103N/V108I. These mutations were chosen because of the resistance that they confer to existing NNRTI. The production procedure of the mutant viral stocks is identical to the one described above.
Anti-HIV activity and cytotoxicity of the compounds were tested on a P4 cell line. The P4 cell line (Clavel & Charneau, 1994. J. Virol., Vol. 68 p 1179-1185) was provided by Dr. François Clavel (Unité de recherche antivirale de l'hôpital Xavier Bichat Paris: Inserm). The P4 cells were cultured in complete DMEM medium supplemented with 10% fetal bovine serum (FBS), 0.5% of Penicillin/Streptomycin and G418 at 0.5 mg/ml. Exponentially growing cells were trypsinized, centrifuged and split twice weekly at 5.10^4 cells/ml.
The P4 cells are HIV-infectible Hela-CD4 cells that carry the bacterial lacZ gene under the control of the HIV-1 long terminal repeat (LTR). In this cell line, transcription of the LacZ gene is driven by the HIV-1 LTR. As such, the cytoplasmic accumulation of β-galactosidase is strictly dependent on the presence of the HIV transactivator Tat produced during the intracellular viral replication (Clavel & Charneau, 1994. J. Virol., Vol. 68, p. 1179-1185). In other words, in this system, the expression level of the β-galactosidase gene is proportional to the viral replication.
as §3
The absorbance was measured on a Benchmark™ Microplate Reader (Biorad) (λ=570 nm) and compared with 12 cell control replicates (no virus or drug added) and 12 virus control wells (no drug added). Each assay was performed a minimum of three times. The 50% effective concentration (Ec50) was calculated from each dose response curve using the CurveExpert 1.3 software. As Nevirapine activity corresponds to its published values (10-100 nM), the data are consistent with other measures of viral replication.

[5] = test system: HIV-1 with WT (wild type) RT in TZM-bl cells; test: Anti-HIV assay on TZM-bl cell line, WT RT; assay type: cell-based
Method: as §2, with “Wurzburg Jurkat T cells (subclone JR) were transfected with 10 μg of the circularly permuted infectious molecular clone HIVNL4-3 (Adachi et al., 1986. J. Virol, 59 (2), p 284-291). Two” for “Two”
(§6) Anti-HIV activity and cytotoxicity of the compounds were tested on the TZM-b1 cell line. The TZM-b1 cell line (Wei et al. 2002. Antimicrob. Agents Chemother. Vol. 46, p 1896-1905) was received from the NIH AIDS Research and Reference Reagent Program. These cells were cultured in complete DMEM medium supplemented with 10% fetal bovine serum (FBS), and 1% Penicillin/Streptomycin. Exponentially growing cells were trypsinized, centrifuged and split twice weekly at 5 10^4 cells/ml.
(§7) The anti-HIV assay with TZM-b1 cells is essentially the same as described above with P4 cells. The main difference between the two cell lines is that the TZM-b1 cells express at their surface both the CD4 and CCR5 proteins, acting as receptor and co-receptor for HIV entry, respectively (Wei et al. 2002. Antimicrob. Agents Chemother. Vol. 46, p 1896-1905). This feature makes the cells very sensitive to infection by the virus. The TMZ-b1 cells were infected with equal amount of cell-free virus, corresponding to 10 ng of HIV p24 antigen. This amount is ten times lower than the amount used to infect the P4 cells.

[6] = test system: HIV-1 mutant Cys188RT in TZM-bl cells; test: Anti-HIV assay on TZM-bl cells, Cys188RT mutant; assay type: cell-based; details: TZM-bl, mutant Cys188RT; read-out: EC50 Cys188RT TZM-bl
Description: as §5, §6, §7

[7] = test system: HIV-1 mutant Cys181RT in TZM-bl cells; test: Anti-HIV assay on TZM-bl cells, Cys181RT mutant; assay type: cell-based; details: TZM-bl, mutant Cys181RT; read-out: EC50 Cys181RT TZM-bl
Description: as §5, §6, §7

[8] = test system: HIV-1 mutant Asn103/Ile108RT in TZM-bl cells; test: Anti-HIV assay on TZM-bl cells, Asn103/Ile108RT double mutant; assay type: cell-based; details: TZM-bl, double mutant Asn103/Ile108RT; read-out: EC50 Asn103/Ile108RT TZM-bl
Description: as §5, §6, §7

[9] = P4 cell line, WT RT, read-out: EC50 WT
[10] = Table 8, effect of the R2 substituent, cell line not given, read-out: EC50 WT
[11] = Table 8, effect of the R2 substituent, cell line not given, read-out: EC50 Cys188RT
[12] = Human immunodeficiency virus 1, P4 cell line, WT RT, read-out: EC50 WT

In the case of CCOC(=O)c1c(OC2CC(C)CC(C)C2)c(CC)c(C)[nH]c1=O (single isomer, unassigned) [Z37A], the “Relative (%) RT activity in vitro (compound added at 10 μM)” value (“Relative (%) RT activity in vitro” for short) [1] was 7.6%, the pEC50 [2, 9] was 6.62 and the CC50 (P4 cells) was 63 µM.

For CCOC(=O)c1c(OC(=O)C=C(C)C)c(CC)c(C)[nH]c1=O [M18, ethyl 5-ethyl-6-methyl-4-[(3-methylbut-2-enoyl)oxy]-2-oxo-1,2-dihydropyridine-3-carboxylate], the “Relative (%) RT activity in vitro” value [1] was 70.8%, the pEC50 ([2]; Human immunodeficiency virus 1, read-out: EC50 WT) was 5.24 and the “SI (selectivity index = CC50/EC50)” value ([2]; P4 cell line, WT RT) was greater than 17. For the same molecule, the CC50 at 3 days [3] was greater than 100 µM and the melting point was 166 °C.

For CCOC(=O)c1c(OC2CCCCC2Cl)c(CC)c(C)[nH]c1=O (centres unmarked) [Z12], the “Relative (%) RT activity in vitro” value [1] was 63.7%, the pEC50 [2, 9] was 5.51 and the CC50 (P4 cells) was greater than 100 µM.

With CCOC(=O)c1c(OC2CCCCCC2)c(CC)c(C)[nH]c1=O [Z25] the “Relative (%) RT activity in vitro” value [1] was 34.6%, the pEC50 [2, 9] was 6.32 and the pEC50 [2, 10] was 6.32. The CC50 (P4 cells) was 81 µM, the “activity on Cys188 mutant strains compared with the cyclohexyl derivative” value [4] was “more active on Cys188 mutant strains than the cyclohexyl derivative” and the pEC50 [4, 11] was 5.48.

With CCOC(=O)c1c(OC2CCCC(C)C2)c(CC)c(C)[nH]c1=O (centres unmarked) [Z30] the “Relative (%) RT activity in vitro” value [1] was 22.0%, the pEC50 [2, 9] was 6.28 and the CC50 (P4 cells) was greater than 100 µM.

In the case of CCc1c(C)[nH]c(=O)c(CO)c1OC1CCCCCC1 [Z32, 4-(cycloheptyloxy)-3-(hydroxymethyl)-5-ethyl-6-methylpyridin-2(1H)-one], the “Relative (%) RT activity in vitro” value [1] was 44.0%, the pEC50 [2, 12] was 5.94 and the “SI (selectivity index = CC50/EC50)” value ([2]; P4 cell line, WT RT) was 47. It also gave a CC50 at 3 days [3] of 55 µM and a melting point of 146 °C.

For CCc1c(C)[nH]c(=O)c(COC(=O)CCl)c1OC1CCCCCC1 [Z33, [4-(cycloheptyloxy)-5-ethyl-6-methyl-2-oxo-1,2-dihydropyridin-3-yl]methyl chloroacetate], the “Relative (%) RT activity in vitro” value [1] was 42.0%, the pEC50 [2, 12] was 5.99 and the “SI (selectivity index = CC50/EC50)” value ([2]; P4 cell line, WT RT) was 52. It also gave a CC50 at 3 days [3] of 54 µM and a melting point of 123 °C.

In the case of CCOC(=O)c1c(OC2CC(C)CC(C)C2)c(CC)c(C)[nH]c1=O (centres unmarked) [Z37, ethyl 4-[(3,5-dimethylcyclohexyl)oxy]-5-ethyl-6-methyl-pyridine-2(1H)-one-3-carboxylate], the “Relative (%) RT activity in vitro” value [1] was 8.3%, the pEC50 [2, 12] was 7.37 and the “SI (selectivity index = CC50/EC50)” value ([2]; P4 cell line, WT RT) was 1349. The CC50 at 3 days [3] was 58 µM, the “activity on Cys188 mutant strains compared with the cyclohexyl derivative” value [4] was “more active on Cys188 mutant strains than the cyclohexyl derivative” and the pEC50 ([4]; Human immunodeficiency virus 1, read-out: EC50 Cys188RT) was 8.22. The melting point was 108 °C.

With CCc1c(C)[nH]c(=O)c(C(=O)OCCN(CC)CC)c1OC1CC(C)CC(C)C1 (centres unmarked) [Z53] the “Relative (%) RT activity in vitro” value [1] was 34.3%.

For CCOC(=O)c1c(OC2CCCCCCC2)c(CC)c(C)[nH]c1=O [Z54], the “Relative (%) RT activity in vitro” value [1] was 24%, the pEC50 [2, 9] was 5.87 and the CC50 (P4 cells) was 58 µM.

For CCOC(=O)c1c(OC2CCC(CC)CC2)c(CC)c(C)[nH]c1=O (centres unmarked) [Z55], the “Relative (%) RT activity in vitro” value [1] was 40.3%.

With CCc1c(C)[nH]c(=O)c(N)c1OC1CC(C)CC(C)C1 (centres unmarked) [Z96inv] the “Relative (%) RT activity in vitro” value [1] was 25.4%.

Molecule CCc1c(C)[nH]c(=O)c(CC)c1OC1CC(C)CC(C)C1 (centres unmarked) [Z167] has a pEC50 [5] greater than 9.00, a pEC50 [6] greater than 9.00 and a pEC50 [7] of 8.15. It also gave a pEC50 [8] of 6.89.

CCOC(=O)c1c(OC2CCCC2)c(CC)c(C)[nH]c1=O [reference compound] gave a pEC50 [2, 10] of 5.72.

In the case of CCOC(=O)c1c(OC2CCCCC2)c(CC)c(C)[nH]c1=O [reference compound], the pEC50 [2, 10] was 6.11 and the pEC50 [4, 11] was 5.19.
